Data as given in patent US10517964B2, “Optical imaging probes, optical imaging systems, methods of optical imaging, and methods of using optical imaging probes” (priority 2011, dated 2019).

Experiments:
[1] = radioactive OI and microPET of bone-seeking probe; assay type: in vivo, mice; conditions: 0.5-2 h
Experimental: Bone-seeking PET probe, Na^18F, was also used for radioactive OI and microPET imaging studies to further confirm the use of optical signals from radioactive probes for molecular imaging.
(§1) Radioactive optical imaging: In vivo radioactive OI was also performed with an IVIS Spectrum system. Wavelength-resolved spectral imaging was carried out suing a 18 narrow bands emission filters set (490-850 nm). Animals were placed in a light-tight chamber under isofluorane anesthesia. Each acquisition, with or without filters, took 1-5 min for all studies. Images were acquired and analyzed using Living Image 3.0 software (Caliper life sciences, Hopkinton, Mass.). Quantification of Radioactive OI images was corrected in accordance with radionuclides' respective physical decay properties. Optical signal was normalized to photons per second per centimeter square per steradian (p/s/cm^2/sr). Identical setting was used for in vitro Radioactive OI. For in vivo imaging study, normal mice or mice bearing either C6-fluc or PC3 (n=3 for each imaging probe) were injected via tail vein with Na^18F (5.3-5.7 MBq, 140-150 μCi), [^18F]FDG (10.4-11.3 MBq, 280-305 μCi), Na^131I (2.2-2.3 MBq, 59-61 μCi), ^90YCl3 (1.8-2.0 MBq, 48-54 μCi) or ^90Y-RGD-BBN (2.6-3.3 MBq, 70-90 μCi). For [^18F]FDG imaging study, the mice were fasted overnight prior to the experiment.

[2] = thyroid radioactive OI and SPECT/CT; assay type: in vivo, mice; conditions: quantitative analysis of OI, 0.5-24 h
From the text: Iodine ion can accumulate in the thyroid, and Na^123/131I has been widely used for imaging thyroid function, treating thyroid cancer and sodium iodide symporter^15-17. Therefore, we then tested the SPECT probe, Na^131I, for thyroid radioactive OI. […] High imaging signal was found in the thyroid and bladder at earlier time points postinjection (p.i.). […] At the end of OI study, the mice were sacrificed and the neck and chest areas were opened to expose the internal organs. The thyroid can be easily differentiated (FIG. 1.5d).
as §1, with “For in vivo imaging study, normal mice or mice bearing either C6-fluc or PC3 (n=3 for each imaging probe) were injected via tail vein with Na^18F (5.3-5.7 MBq, 140-150 μCi), [^18F]FDG (10.4-11.3 MBq, 280-305 μCi), Na^131I (2.2-2.3 MBq, 59-61 μCi), ^90YCl3 (1.8-2.0 MBq, 48-54 μCi) or ^90Y-RGD-BBN (2.6-3.3 MBq, 70-90 μCi). For [^18F]FDG imaging study, the mice were fasted overnight prior to the experiment.” left out

[3] = radioactive OI of 90YCl3 in mice; assay type: in vivo; conditions: various time points p.i.
Experimental: Mice injected with ^90YCl3 (1.8-2.0 MBq each) were also imaged by an IVIS Spectrum system at different time points p.i. (FIG. 1.6e). […] The results obtained by the radioactive OI also agreed well with the previously reports which measured the in vivo behavior of ^90YCl3 by biodistribution study^21.
as §1, with “For [^18F]FDG imaging study, the mice were fasted overnight prior to the experiment.” left out

[18F-].[Na+] [Na^18F]
distribution of imaging signal [1]: High and consistence imaging signals were observed in the bone structures

[131I-].[Na+] [Na^131I]
thyroid uptake [2]: accumulated and maintained in the thyroid

[Cl][90Y]([Cl])[Cl] [^90YCl3]
tissue accumulation [3]: accumulated in the liver as well as in the bone (femur)
